{
  "source": "patent US20110059114A1",
  "about": "“Compositions and Methods for the Treatment of Radioresistant Glioma Stem Cells” (DUKE UNIVERSITY, priority 2009, published 2011)",
  "format_in_all_cases": "cell-based, human",
  "key": {"T4302 CD133+ cells": {"test_system": "T4302 CD133+ cells", "test": "Trypan blue exclusion assay", "conditions": "two days after 3-Gy radiation", "method": "(§1) FIG. 2 is a series of graphs illustrating that γ-secretase inhibitors enhance radiation-induced cell death in glioma stem cells. (A) T4302 CD 133+ cells were pre-treated with DAPT or L685,458 for 4 hours and irradiated at 3 Gy. Percentage of dead cells was determined by trypan blue exclusion assay at 48 hours after radiation exposure. (B) T4302 CD 133+ cells were treated with GSIs ±radiation as indicated. Cells were then plated at 3000 cells per well in 96-well plates. Relative caspase 3/7 activities were determined by normalizing caspase activities to the corresponding cell titers. (C) T4302 CD 133+ cells were treated as described in FIG. 2A. 24 or 48 hours after radiation exposure, cells were labeled with FITC-conjugated Annexin V staining kit (BD Sciences) according to manufacturer's instructions and analyzed by flow cytometry. (D) T4302 CD 133+ cells were pre-treated with 2 μM DAPT for 4 hours, and were left unirradiated or irradiated at 1, 2 or 3 Gy. Relative caspase 3/7 activities were determined at 72 hours after radiation. (E) T4302 CD133+ cells were pre-treated with DAPT at indicated concentrations for 4 hours and irradiated at 3 Gy. Relative caspase activities were determined at 48 or 72 hours after radiation. *: p<0.01 by Student's t-test; #: p<0.01 by one-way ANOVA."}, "Notch signaling": {"test_system": "Notch signaling", "test": "Notch-responsive luciferase reporter (RBP-Jκ reporter) assay", "conditions": "T4302 CD133+ cells; 2 μM DAPT or 0.5 μM L685,458 over night", "from_the_text": "(§2) FIG. 1 is a series of graphs illustrating that γ-secretase inhibitors reduce cell growth and clonogenic survival of glioma stem cells following radiation. (A) T4302 CD133+ glioma stem cells were transfected with a Notch-responsive luciferase reporter (RBP-JK reporter) pre-mixed with the vector directing constitutive expression of Renilla luciferase. Cells were left unirradiated or irradiated at 3 Gy, and were then collected to measure luciferase activities at time points as indicated. […] The relative mRNA levels of Hes2 were determined by quantitative real-time PCR at the time points as indicated. […] Total viable cell numbers were then determined by the CellTiter-Glo Luminescent Cell Viability Assay (Promega) for the following five days. […] Cells were then plated to form neurospheres, and the surviving fractions were determined as described in methods. […] (F,G) Neurosphere formation of T3359 and T4105 CD 133+ cells treated with GSIs alone, 3-Gy radiation alone, or the combination was determined as described in FIG. 1E. *: p<0.05 by Student's t-test; #: p<0.001 by one-way ANOVA.\nLuciferase assay. […] The luciferase activities were determined by the Dual-luciferase assay system (Promega)."}, "CD133+ glioma stem cells [1]": {"test_system": "CD133+ glioma stem cells", "test": "Caspase-Glo 3/7 assay, relative caspase 3/7 activities", "method": "as §1, with “(D) T4302 CD 133+ cells were pre-treated with 2 μM DAPT for 4 hours, and were left unirradiated or irradiated at 1, 2 or 3 Gy.” left out\nThe caspase activities at 48 or 72 hours after radiation were measured using the Caspase-Glo 3/7 assay (Promega) according to the manufacturer's instructions. The caspase activities were normalized to the corresponding cell titers to obtain the relative caspase 3/7 activities."}, "CD133+ glioma stem cells [2]": {"test_system": "CD133+ glioma stem cells", "test": "Clonogenic survival assay (neurosphere formation)", "conditions": "T4302, 3-Gy radiation", "from_the_text": "as §2\nTo measure clonogenic survival, CD133+ glioma cells were plated in 24-well plates at 50 cells per well for the sham-irradiated groups, 100 cells per well for cells irradiated at 1 Gy, or 500 cells per well for cells irradiated at 2 or 3 Gy. […] Fourteen days after plating, neurospheres containing more than 50 cells were scored. […]"}},
  "data": [
    {"smiles": "CC(NC(=O)Cc1cc(F)cc(F)c1)C(=O)NC(C(=O)OC(C)(C)C)c1ccccc1", "note": "[DAPT, N-[N-(3,5-Difluorophenacetyl-L-alanyl)]-S-phenylglycine t-Butyl Ester]", "values": [
      {"measurement": "dead cells", "setting": "T4302 CD133+ cells", "result": 60, "unit": "%"},
      {"measurement": "Notch signaling in glioma stem cells (Notch-responsive luciferase reporter)", "setting": "Notch signaling", "result": "blocked"},
      {"measurement": "radiosensitizing effect", "setting": "CD133+ glioma stem cells [1]; 200 nM DAPT, 3 Gy", "result": "still being effective"},
      {"measurement": "radiation-induced cell death", "setting": "CD133+ glioma stem cells [1]; 2 μM DAPT added 24 hours after radiation, T4105 or T4302 CD133+ cells", "result": "increased radiation-induced cell death"},
      {"measurement": "radiation-induced cell death (caspase 3/7)", "setting": "CD133+ glioma stem cells [1]; 2 μM, radiation 1, 2 or 3 Gy, 72 hours", "result": "enhanced radiation-induced cell death"},
      {"measurement": "radiosensitizing effects, dependence on concentration", "setting": "CD133+ glioma stem cells [1]; 3 Gy, 48 or 72 hours after radiation", "result": "concentration-dependent effect"},
      {"measurement": "radiation-induced cell death of cells infected with control lentivirus", "setting": "CD133+ glioma stem cells [1]; irradiated, T4302 CD133+", "result": "sensitive to DAPT"},
      {"measurement": "clonogenic survival of irradiated NICD2-expressing cells", "setting": "CD133+ glioma stem cells [2]", "result": "did not significantly alter"}
    ]}
  ]
}
